Laboratory results from PubChem BioAssay (NCI).
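Where inhibition never reached the appropriate level, the endpoint shown equals the highest concentration tested. Otherwise, values were interpolated linearly from a five-concentration, 48-hour dose response in 96-well plates. GI50 = concentration required for 50% inhibition of growth. TGI marks complete inhibition of growth.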

Legend:
Test in all cases: DTP human tumour cell line panel, 48 h
A549 NSCLC = system: A549 NSCLC
MDA-MB-231 breast = system: MDA-MB-231 breast
EKVX NSCLC = system: EKVX NSCLC
MALME-3M melanoma = system: MALME-3M melanoma
OVCAR-5 ovarian = system: OVCAR-5 ovarian
HL-60(TB) leukemia = system: HL-60(TB) leukemia
HCT-15 colon = system: HCT-15 colon
HCC-2998 colon = system: HCC-2998 colon
SK-MEL-5 melanoma = system: SK-MEL-5 melanoma
RPMI-8226 leukemia = system: RPMI-8226 leukemia
COLO 205 colon = system: COLO 205 colon
NCI-H522 lung = system: NCI-H522 lung
OVCAR-8 ovarian = system: OVCAR-8 ovarian
SF-268 CNS = system: SF-268 CNS
SNB-75 CNS = system: SNB-75 CNS
MOLT-4 leukemia = system: MOLT-4 leukemia
SN12C renal = system: SN12C renal
CCRF-CEM leukemia = system: CCRF-CEM leukemia
SNB-19 CNS = system: SNB-19 CNS
OVCAR-4 ovarian = system: OVCAR-4 ovarian
UACC-257 melanoma = system: UACC-257 melanoma
SK-MEL-28 melanoma = system: SK-MEL-28 melanoma
OVCAR-3 ovarian = system: OVCAR-3 ovarian
SR leukemia = system: SR leukemia
A498 renal = system: A498 renal
ACHN renal = system: ACHN renal
SF-539 CNS = system: SF-539 CNS
U251 CNS = system: U251 CNS
HS 578T breast = system: HS 578T breast
BT-549 breast = system: BT-549 breast
IGROV1 ovarian = system: IGROV1 ovarian
SW-620 colon = system: SW-620 colon
SF-295 CNS = system: SF-295 CNS
M14 melanoma = system: M14 melanoma
LOX IMVI melanoma = system: LOX IMVI melanoma
HOP-92 NSCLC = system: HOP-92 NSCLC
DU-145 prostate = system: DU-145 prostate
NCI/ADR-RES ovarian = system: NCI/ADR-RES ovarian
KM12 colon = system: KM12 colon
SK-MEL-2 melanoma = system: SK-MEL-2 melanoma
T-47D breast = system: T-47D breast
K-562 leukemia = system: K-562 leukemia
MCF7 breast = system: MCF7 breast
RXF 393 renal = system: RXF 393 renal
UACC-62 melanoma = system: UACC-62 melanoma
786-0 renal = system: 786-0 renal
NCI-H460 lung = system: NCI-H460 lung
MDA-MB-435 = system: MDA-MB-435
CAKI-1 renal = system: CAKI-1 renal
PC-3 prostate = system: PC-3 prostate
TK-10 renal = system: TK-10 renal
NCI-H226 lung = system: NCI-H226 lung
UO-31 renal = system: UO-31 renal
HCT-116 colon = system: HCT-116 colon
HOP-62 NSCLC = system: HOP-62 NSCLC
NCI-H23 lung = system: NCI-H23 lung
HT29 colon = system: HT29 colon
SK-OV-3 ovarian = system: SK-OV-3 ovarian

N#Cc1c(N)c2c(c(-c3ccccc3)c1-c1ccccc1)C(=O)N(NC(=S)Nc1ccccc1)C2=O
TGI (A549 NSCLC): > 100 µM | TGI (MDA-MB-231 breast): > 100 µM | TGI (EKVX NSCLC): > 100 µM | TGI (MALME-3M melanoma): > 100 µM | TGI (OVCAR-5 ovarian): > 100 µM | TGI (HL-60(TB) leukemia): > 100 µM | TGI (HCT-15 colon): > 100 µM | TGI (HCC-2998 colon): > 100 µM | TGI (SK-MEL-5 melanoma): > 100 µM | TGI (RPMI-8226 leukemia): > 100 µM | TGI (COLO 205 colon): > 100 µM | TGI (NCI-H522 lung): > 100 µM | TGI (OVCAR-8 ovarian): > 100 µM | TGI (SF-268 CNS): > 100 µM | TGI (SNB-75 CNS): > 100000 nM | TGI (MOLT-4 leukemia): > 100 µM | TGI (SN12C renal): > 100 µM | TGI (CCRF-CEM leukemia): > 100 µM | TGI (SNB-19 CNS): > 100 µM | TGI (OVCAR-4 ovarian): > 100 µM | TGI (UACC-257 melanoma): > 100 µM | TGI (SK-MEL-28 melanoma): > 100 µM | TGI (OVCAR-3 ovarian): > 100 µM | TGI (SR leukemia): > 100 µM | TGI (A498 renal): > 100 µM | TGI (ACHN renal): > 100 µM | TGI (SF-539 CNS): > 100 µM | TGI (U251 CNS): > 100 µM | TGI (HS 578T breast): > 100 µM | TGI (BT-549 breast): > 100 µM | TGI (IGROV1 ovarian): > 100 µM | TGI (SW-620 colon): > 100 µM | TGI (SF-295 CNS): > 100 µM | TGI (M14 melanoma): > 100 µM | TGI (LOX IMVI melanoma): > 100 µM | TGI (HOP-92 NSCLC): > 100 µM | TGI (DU-145 prostate): > 100 µM | TGI (NCI/ADR-RES ovarian): > 100 µM | TGI (KM12 colon): > 100 µM | TGI (SK-MEL-2 melanoma): > 100 µM | TGI (T-47D breast): > 100 µM | TGI (K-562 leukemia): > 100 µM | TGI (MCF7 breast): > 100 µM | TGI (RXF 393 renal): 93.8 µM | TGI (UACC-62 melanoma): > 100 µM | TGI (786-0 renal): > 100 µM | TGI (NCI-H460 lung): > 100 µM | TGI (MDA-MB-435): > 100000 nM | TGI (CAKI-1 renal): > 100 µM | TGI (PC-3 prostate): > 100 µM | TGI (TK-10 renal): > 100 µM | TGI (NCI-H226 lung): > 100 µM | TGI (UO-31 renal): > 100 µM | TGI (HCT-116 colon): > 100 µM

CC1CN=C(c2cccc(-c3ccc(-c4ccccc4)o3)c2)N1 (stereo not drawn)
GI50 (A549 NSCLC): 3.68 µM | TGI (A549 NSCLC): 11.2 µM | GI50 (MDA-MB-231 breast): 2200 nM | TGI (MDA-MB-231 breast): 4.49 µM | GI50 (EKVX NSCLC): 4.35 µM | TGI (EKVX NSCLC): 18.9 µM | GI50 (MALME-3M melanoma): 1820 nM | TGI (MALME-3M melanoma): 3.63 µM | GI50 (OVCAR-5 ovarian): 2110 nM | TGI (OVCAR-5 ovarian): 5.41 µM | GI50 (HL-60(TB) leukemia): 2280 nM | TGI (HL-60(TB) leukemia): 4.7 µM | GI50 (HCT-15 colon): 1660 nM | TGI (HCT-15 colon): 3.47 µM | GI50 (HCC-2998 colon): 1950 nM | TGI (HCC-2998 colon): 3.65 µM | GI50 (SK-MEL-5 melanoma): 1710 nM | TGI (SK-MEL-5 melanoma): 3.11 µM | GI50 (RPMI-8226 leukemia): 2430 nM | TGI (RPMI-8226 leukemia): 7.05 µM | GI50 (COLO 205 colon): 1610 nM | TGI (COLO 205 colon): 3.25 µM | GI50 (NCI-H522 lung): 1670 nM | TGI (NCI-H522 lung): 3.65 µM | GI50 (OVCAR-8 ovarian): 5.98 µM | TGI (OVCAR-8 ovarian): 23.2 µM | GI50 (HOP-62 NSCLC): 2600 nM | TGI (HOP-62 NSCLC): 6.37 µM | GI50 (NCI-H23 lung): 2970 nM | TGI (NCI-H23 lung): 12.5 µM | GI50 (SF-268 CNS): 1830 nM | TGI (SF-268 CNS): 3.78 µM | GI50 (SNB-75 CNS): 1470 nM | TGI (SNB-75 CNS): 2840 nM | GI50 (SN12C renal): 3.59 µM | TGI (SN12C renal): 15.4 µM | GI50 (CCRF-CEM leukemia): 2440 nM | TGI (CCRF-CEM leukemia): 6.78 µM | GI50 (SNB-19 CNS): 2290 nM | TGI (SNB-19 CNS): 5.47 µM | GI50 (OVCAR-4 ovarian): 3.01 µM | TGI (OVCAR-4 ovarian): 19.5 µM | GI50 (UACC-257 melanoma): 2310 nM | TGI (UACC-257 melanoma): 4.62 µM | GI50 (SK-MEL-28 melanoma): 1810 nM | TGI (SK-MEL-28 melanoma): 4.02 µM | GI50 (OVCAR-3 ovarian): 3.47 µM | TGI (OVCAR-3 ovarian): 13.7 µM | GI50 (HT29 colon): 2390 nM | TGI (HT29 colon): 4.93 µM | GI50 (SR leukemia): 1860 nM | TGI (SR leukemia): 5.32 µM | GI50 (A498 renal): 2740 nM | TGI (A498 renal): 10.6 µM | GI50 (ACHN renal): 1850 nM | TGI (ACHN renal): 3.89 µM | GI50 (SF-539 CNS): 1760 nM | TGI (SF-539 CNS): 3.42 µM | GI50 (U251 CNS): 2470 nM | TGI (U251 CNS): 5.88 µM | GI50 (HS 578T breast): 2570 nM | TGI (HS 578T breast): 7.26 µM | GI50 (BT-549 breast): 10.5 µM | TGI (BT-549 breast): 22.5 µM | GI50 (IGROV1 ovarian): 2080 nM | TGI (IGROV1 ovarian): 5.14 µM | GI50 (SW-620 colon): 1850 nM | TGI (SW-620 colon): 3.69 µM | GI50 (SF-295 CNS): 1810 nM | TGI (SF-295 CNS): 3.84 µM | GI50 (M14 melanoma): 2230 nM | TGI (M14 melanoma): 5.63 µM | GI50 (LOX IMVI melanoma): 1730 nM | TGI (LOX IMVI melanoma): 3.22 µM | GI50 (HOP-92 NSCLC): 2130 nM | TGI (HOP-92 NSCLC): 5.67 µM | GI50 (DU-145 prostate): 4.05 µM | TGI (DU-145 prostate): 15.8 µM | GI50 (NCI/ADR-RES ovarian): 3.57 µM | TGI (NCI/ADR-RES ovarian): 25.9 µM | GI50 (KM12 colon): 2660 nM | TGI (KM12 colon): 7.92 µM | GI50 (SK-MEL-2 melanoma): 1740 nM | TGI (SK-MEL-2 melanoma): 3.57 µM | GI50 (T-47D breast): 1920 nM | TGI (T-47D breast): 5.05 µM | GI50 (K-562 leukemia): 1720 nM | TGI (K-562 leukemia): 3.91 µM | GI50 (MCF7 breast): 1710 nM | TGI (MCF7 breast): 3.59 µM | GI50 (SK-OV-3 ovarian): 4.2 µM | TGI (SK-OV-3 ovarian): 14.8 µM | GI50 (RXF 393 renal): 1720 nM | TGI (RXF 393 renal): 3.36 µM | GI50 (UACC-62 melanoma): 1940 nM | TGI (UACC-62 melanoma): 4.06 µM | GI50 (786-0 renal): 1840 nM | TGI (786-0 renal): 3.8 µM | GI50 (NCI-H460 lung): 1830 nM | TGI (NCI-H460 lung): 4.24 µM | GI50 (MDA-MB-435): 1610 nM | TGI (MDA-MB-435): 2990 nM | GI50 (CAKI-1 renal): 2550 nM | TGI (CAKI-1 renal): 9.19 µM | GI50 (PC-3 prostate): 2040 nM | TGI (PC-3 prostate): 5.17 µM | GI50 (TK-10 renal): 4.04 µM | TGI (TK-10 renal): 14.4 µM | GI50 (NCI-H226 lung): 14.3 µM | TGI (NCI-H226 lung): 39.4 µM | GI50 (UO-31 renal): 1620 nM | TGI (UO-31 renal): 3.32 µM | GI50 (HCT-116 colon): 1810 nM | TGI (HCT-116 colon): 3.69 µM
